Laboratory results: ChEMBL document CHEMBL1138059, “Discovery of a nanomolar inhibitor of the human murine double minute 2 (MDM2)-p53 interaction through an integrated, virtual database screening strategy” (J Med Chem, 2006)
Active and inactive are the calls of the source. No cut-off for these calls is given here.

What was measured:
[1] = molecular target: E3 ubiquitin-protein ligase Mdm2 (Homo sapiens, UniProt Q00987)
HCT-116 [2] = experiment: Induction of p21 accumulation in isogenic HCT116 p53-/- cells; assay type: functional, cell-based; details: Homo sapiens
HCT-116 [3] = experiment: Induction of MDM2 accumulation in HCT116 cells expressing wild type p53; assay type: functional, cell-based; details: Homo sapiens
HCT-116 [4] = experiment: Induction of MDM2 accumulation in isogenic HCT116 p53-/- cells; assay type: functional, cell-based; details: Homo sapiens
HCT-116 [5] = experiment: Induction of p53 accumulation in HCT116 cells expressing wild type p53; assay type: functional, cell-based; details: Homo sapiens
HCT-116 [6] = experiment: Induction of p53 accumulation in isogenic HCT116 p53-/- cells; assay type: functional, cell-based; details: Homo sapiens
HCT-116 [7] = experiment: Induction of p21 accumulation in HCT116 cells expressing wild type p53; assay type: functional, cell-based; details: Homo sapiens

Sequence of E3 ubiquitin-protein ligase Mdm2 (Q00987 whole entry): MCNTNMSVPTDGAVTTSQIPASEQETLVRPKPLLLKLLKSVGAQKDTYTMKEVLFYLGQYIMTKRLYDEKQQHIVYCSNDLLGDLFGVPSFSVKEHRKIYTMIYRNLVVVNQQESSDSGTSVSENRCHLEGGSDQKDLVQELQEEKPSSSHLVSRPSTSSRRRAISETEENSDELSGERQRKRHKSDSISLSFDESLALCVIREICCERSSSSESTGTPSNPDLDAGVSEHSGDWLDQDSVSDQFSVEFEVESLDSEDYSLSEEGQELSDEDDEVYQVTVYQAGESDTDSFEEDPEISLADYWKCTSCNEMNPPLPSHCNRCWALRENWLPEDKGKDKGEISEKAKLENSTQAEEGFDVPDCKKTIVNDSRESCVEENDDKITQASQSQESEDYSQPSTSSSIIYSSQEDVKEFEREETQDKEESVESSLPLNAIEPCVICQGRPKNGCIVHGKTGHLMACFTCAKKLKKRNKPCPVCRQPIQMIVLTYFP

Cc1ccc2ccc(C(Nc3ccccc3)c3ccccc3)c(O)c2n1 (configuration not stated)
Ki [1]: 120 nM | Activity (HCT-116 [2]): inactive | Activity (HCT-116 [3]): Dose-dependent effect | Activity (HCT-116 [4]): inactive | Activity (HCT-116 [5]): Dose-dependent effect | Activity (HCT-116 [6]): inactive | Activity (HCT-116 [7]): Dose-dependent effect
